Here are results for 2 compounds from PMC6130489, “Caffeic acid methyl and ethyl esters exert potential antidiabetic effects on glucose and lipid metabolism in cultured murine insulin-sensitive cells through mechanisms implicating activation of AMPK” (Pharmaceutical Biology, 2017).

One experiment has as its system GLUT4myc. The experiment can be described thus: Cell surface GLUT4myc (GLUT4 translocation), OPD assay. The experiment is classed as cell-based, rat. The settings on record: 50 μM, 18 h; L6-GLUT4myc. The method, then: L6-GLUT4myc myotubes grown in 24-well plates were serum-starved for 4 h and were incubated with either CAME or CAEE (50 μM) for 18 h or insulin (100 nM) for 15 min. Cell-surface GLUT4myc levels were measured by an antibody-coupled colorimetric assay (Niu et al. [2003]) using O-phenylenediamine dihydrochloride (OPD) reagent (1 mL/well) (Sigma-Aldrich, St. Louis, MO), an anti-c-myc antibody (1:200 dilution; Santa Cruz Biotechnology, Santa Cruz, CA) and horseradish peroxidase (HRP)-conjugated goat anti-rabbit IgG at 4 °C (1:1000 dilution; Cell Signaling Technologies, Danvers, MA).
Figure 1. (A) CAME and CAEE increase ^3H-deoxyglucose uptake in L6 GLUT4myc myotubes. Cells were treated with 50 μM of either CAME, CAEE, or with vehicle (0.1% DMSO) for 18 h. 100 nM insulin served as the positive control and was applied for the last 15 min of the treatment in vehicle-treated cells. Glucose uptake was performed as described in Materials and Methods section. (B) CAME and CAEE stimulate GLUT4 translocation in L6 GLUT4myc myotubes. Cells were treated as previously described, cell surface GLUT4myc was detected by an enzyme-linked colorimetric assay. By the end of the treatment, L6- GLUT4myc cells were labeled with anti-c-myc antibody as described in Materials and Methods section. Results represent the means ± SEM of three independent experiments, and 3-4 cells were analyzed for each condition per experiment. *Indicates a significant (p ≤ 0.05) difference, **(p < 0.01) from the vehicle control group as assessed by ANOVA. […] L6 myotubes treated with CAME or CAEE (50 μM each), DMSO (0.1%) for 18 h. Insulin (100 nM) and AICAR (2 mM) both applied for 30 min and served as positive controls. Immunoblots were probed with anti phospho-AMPK (Thr 172), anti-GLUT4, anti-GLUT1 and anti-phospho-Akt (Ser 473) antibodies as described in Materials and Methods section. […] Data are expressed as (D) phospho-AMPK/β-actin, (E) GLUT4/β-actin and (F) GLUT1/β-actin and are given as mean ± SEM from 3 experiments. *p < 0.05 indicates a significant difference, **(p < 0.01) from the vehicle control group.

Another experiment relates to PPAR-γ. Description: Western immunoblot PPAR-γ in 3T3-L1 adipocytes. The settings on record: 100 μM (Figure 4 legend). The experiment is classed as cell-based, mouse. The procedure:
(§1) Insulin (100 nM) or aminoimidazole carboxamide ribonucleotide (AICAR; 1 mM) were added to some vehicle-treated wells 30 min prior to the end of the treatment and served as the positives controls. Protein content was assayed by the bicinchoninic acid method (Thermo Scientific Pierce Protein Research, Rockford, IL) standardized to bovine serum albumin. Western immunoblotting was performed as described elsewhere (Eid et al. [2010]). Membranes were incubated overnight with phospho-AMPK, phospho-Akt, GLUT4, GLUT1 and β-actin antibodies (1:1000 dilution, Cell Signalling Technology, Danvers, MA), or with PPAR-γ, SREBP-1 (1:200, Santa Cruze Biotechnology, Santa Cruz, CA), followed by incubation with HRP-coupled secondary antibody (1:10,000) for 1 h. Immunoreactive bands were visualized by enhanced chemiluminescence and quantified by the Scion Image program (Scion Corporation, Frederick, MD). Experiments were repeated on 3 different passages of cells, each passage containing all conditions in parallel.
(§2) Figure 4. CAME and CAEE inhibit C/EBP-β and PPAR-γ protein expression through mechanisms implicating AMPK pathway. Shown are representative blots of 3T3-adipocytes treated with the maximum nontoxic concentration (100 μM) of either CAME or CAEE. […] Data are expressed as C/EBP-β/β-actin (D), PPAR-γ/β-actin (E), phospho-Akt/pan-Akt (F) and phospho-AMPK/pan-AMPK (G). […]
On the technique in general: Immunoblotting shows a protein as a band on a membrane.

The next experiment relates to 3T3-L1 adipocytes. The experiment can be described thus: Adipogenesis assay (AdipoRed lipid accumulation). The format is cell-based. The settings on record: Mus musculus, 192 h, 3T3-L1, day 8 of differentiation; for IC50: read-out: adipogenesis inhibition IC50. The method, then:
Starting from day 0 of differentiation, 3T3-L1 adipocytes were separately treated with different concentrations of either CAME or CAEE (12.5, 25, 50 and 100 μM). Cells treated with vehicle (0.1% DMSO) in proliferation and differentiation media were used as negative controls. The adipogenic compound rosiglitazone (5 μM) was added to some vehicle-treated wells and served as the positive control. At day 8 after initiation of differentiation, intracellular lipid accumulation was quantified as previously described using AdipoRed Reagent according to the manufacturer’s protocol (Martineau et al. [2010]).
Figure 3. (A and B) Anti-adipogenic effect of CAME and CAEE in 3T3-L1 adipocytes. Cells were treated with several concentrations (12.5, 25, 50 and100 μM) of either CAME or CAEE in DMEM containing 10% FBS and the standard adipogenic cocktail (500 μM 3-isobutyl-1-methylxanthine, 500 nM insulin and 10 μM dexamethasone) for 2 days then in DMEM containing 10% FBS and 500 nM insulin starting from days 2-8 of differentiation. This medium was changed every 2 days. (A) On day 8, lipid content was measured by AdipoRed assay. Results represent the means ± SEM of three independent experiments. *Indicates a significant (p ≤ 0.05) difference, **(p < 0.01), ***(p < 0.001) from the vehicle control group. […] Vehicle-treated cells show the presence of lipid droplets. On the other hand, cells treated with the maximum nontoxic concentration (100 μM) of either CAME or CAEE retained the fibroblast-like morphology of pre-adipocytes and were devoid of lipid droplets. (C) CAME and CAEE inhibit pre-adipocyte clonal expansion. Confluent 3T3-L1 pre-adipocytes undergoing clonal expansion in response to differentiation cues were treated with vehicle or 12.5, 25, 50 and 100 μM of either CAME or CAEE for 20 h and incorporation of ^3H-labeled thymidine was measured. Normalized data are presented as mean ± SEM of three independent experiments. **Indicates a significant (p ≤ 0.01) difference, ***(p < 0.001) from the vehicle control group.

The test system of a further experiment is Akt. The experiment can be described thus: Western immunoblot phospho-Akt in 3T3-L1 adipocytes. The experiment is classed as cell-based, mouse. The following applies: 100 μM (Figure 4 legend). The method, then: as §1, §2
In a further experiment the test system is C2C12 cells. Set-up: method as in Eid et al. [2010]. The following applies: cultured C2C12 cells; ref Eid et al. [2010]; cited from earlier work.

Values joined by “and” are separate entries in the source; they are usually repeats but may differ in a detail not shown here. Equal entries are not always repeated.

What is called IC50 is the midpoint of a concentration-inhibition curve. For orientation: inhibition means the share of the control response that was lost under treatment. A high value points to a strong effect. `CCOC(=O)/C=C/c1ccc(O)c(O)c1` [CAEE, caffeic acid ethyl ester]: the “GLUT4 translocation, fold relative to DMSO” value in the experiment on GLUT4myc is listed as 1.95 ± 0.30 fold. The “protein level of PPAR-γ” value in the experiment with PPAR-γ is recorded as “significantly reduced”. Further, in the experiment with 3T3-L1 adipocytes, the IC50 came to 12.9 µM and 100 µM produced 97.3 ± 3% inhibition. The Akt phosphorylation result with Akt is given as “did not modulate”. In addition, in the experiment with C2C12 cells, the glucose uptake result is on record as “potently enhanced glucose uptake”.
Consider `COC(=O)/C=C/c1ccc(O)c(O)c1` [CAME, CA methyl ester], for which the “GLUT4 translocation, fold relative to DMSO” value in the experiment with GLUT4myc is 1.73 ± 0.18 fold and 1.79 ± 0.18 fold. For the same compound, in the experiment on PPAR-γ, the “protein level of PPAR-γ” value is given as “significantly reduced”. Besides, in the experiment on 3T3-L1 adipocytes, the IC50 was found to be 13.8 µM and at 100 µM the inhibition was 83.3 ± 7.2%. Besides, in the experiment with Akt, the Akt phosphorylation entry is on record as “did not modulate”. The glucose uptake entry with C2C12 cells is on record as “potently enhanced glucose uptake”.
